US20100298141A1, “SUBSTITUTED PYRIDINE N-OXIDE HERBICIDES” (E. I. DU PONT DE NEMOURS AND COMPANY, priority 2007, published 2010)

Key:
Assay in all cases: Test A pre-/postemergence greenhouse test
barnyardgrass = assay type: in vivo, Echinochloa crus-galli; conditions: for Plant response rating, Barnyardgrass: 0 to 100 scale where 0 is no effect and 100 is complete control; for Barnyardgrass plant response rating: 0 to 100 scale
Description: (§1) Seeds of barnyardgrass (Echinochloa crus-galli), crabgrass (Digitaria sanguinalis), giant foxtail (Setaria faberi), morningglory (Ipomoea spp.), redroot pigweed (Amaranthus retroflexus), velvetleaf (Abutilon theophrasti), wheat (Triticum aestivum), and corn (Zea mays) were planted into a blend of loam soil and sand and treated preemergence with a directed soil spray using test compounds formulated in a non-phytotoxic solvent mixture which included a surfactant. At the same time these species were also treated with postemergence applications of test compounds formulated in the same manner. Plants ranged in height from two to ten cm and were in the one- to two-leaf stage for the postemergence treatment. Treated plants and untreated controls were maintained in a greenhouse for approximately ten days, after which time all treated plants were compared to untreated controls and visually evaluated for injury. […] A dash (-) response means no test results.

crabgrass = assay type: in vivo, Digitaria sanguinalis; conditions: for Plant response rating, Crabgrass, Large: 0 to 100 scale where 0 is no effect and 100 is complete control; for Crabgrass, Large plant response rating: 0 to 100 scale
Description: as §1

giant foxtail = assay type: in vivo, Setaria faberi; conditions: for Plant response rating, Foxtail, Giant: 0 to 100 scale where 0 is no effect and 100 is complete control; for Foxtail, Giant plant response rating: 0 to 100 scale
Description: as §1

morningglory = assay type: in vivo, Ipomoea spp.; conditions: for Plant response rating, Morningglory: 0 to 100 scale where 0 is no effect and 100 is complete control; for Morningglory plant response rating: 0 to 100 scale
Description: as §1

redroot pigweed = assay type: in vivo, Amaranthus retroflexus; conditions: for Plant response rating, Pigweed: 0 to 100 scale where 0 is no effect and 100 is complete control; for Pigweed plant response rating: 0 to 100 scale
Description: as §1

velvetleaf = assay type: in vivo, Abutilon theophrasti; conditions: for Plant response rating, Velvetleaf: 0 to 100 scale where 0 is no effect and 100 is complete control; for Velvetleaf plant response rating: 0 to 100 scale
Description: as §1

wheat = assay type: in vivo, Triticum aestivum; conditions: for Plant response rating, Wheat: 0 to 100 scale where 0 is no effect and 100 is complete control; for Wheat plant response rating: 0 to 100 scale
Description: as §1

corn = assay type: in vivo, Zea mays; conditions: for Plant response rating, Corn: 0 to 100 scale where 0 is no effect and 100 is complete control; for Corn plant response rating: 0 to 100 scale
Description: as §1

[1] = Postemergence, 500 g ai/ha, 0 is no effect, 100 is complete control
[2] = Preemergence, 125 g ai/ha, 0 no effect, 100 complete control
[3] = Preemergence, 500 g ai/ha, 0 no effect, 100 complete control

SMILES | Plant response rating, Barnyardgrass (barnyardgrass; Postemergence, 125 g ai/ha) | Barnyardgrass plant response rating (barnyardgrass; [1]) | Barnyardgrass plant response rating (barnyardgrass; [2]) | Barnyardgrass plant response rating (barnyardgrass; [3]) | Plant response rating, Crabgrass, Large (crabgrass; Postemergence, 125 g ai/ha) | Crabgrass, Large plant response rating (crabgrass; [1]) | Crabgrass, Large plant response rating (crabgrass; [2]) | Crabgrass, Large plant response rating (crabgrass; [3]) | Plant response rating, Foxtail, Giant (giant foxtail; Postemergence, 125 g ai/ha) | Foxtail, Giant plant response rating (giant foxtail; [1]) | Foxtail, Giant plant response rating (giant foxtail; [2]) | Foxtail, Giant plant response rating (giant foxtail; [3]) | Plant response rating, Morningglory (morningglory; Postemergence, 125 g ai/ha) | Morningglory plant response rating (morningglory; [1]) | Morningglory plant response rating (morningglory; [2]) | Morningglory plant response rating (morningglory; [3]) | Plant response rating, Pigweed (redroot pigweed; Postemergence, 125 g ai/ha) | Pigweed plant response rating (redroot pigweed; [1]) | Pigweed plant response rating (redroot pigweed; [2]) | Pigweed plant response rating (redroot pigweed; [3]) | other results
CCCc1cc[n+]([O-])c([S+]([O-])Cc2c(C(F)(F)F)nn(C)c2OCC(F)(F)F)c1 (stereo not drawn) [Compound 114] | 50 | 80 | 90 | 100 | 50 | 80 | 90 | 100 | 80 | 90 | 100 | 100 | 60 | 70 | 70 | 90 | 70 | 90 | 100 | 100 | Plant response rating, Velvetleaf (velvetleaf; Postemergence, 125 g ai/ha): 50; Velvetleaf plant response rating (velvetleaf; [1]): 60; Velvetleaf plant response rating (velvetleaf; [2]): 60; Velvetleaf plant response rating (velvetleaf; [3]): 80; Plant response rating, Wheat (wheat; Postemergence, 125 g ai/ha): 50; Wheat plant response rating (wheat; [1]): 70; Wheat plant response rating (wheat; [2]): 60; Wheat plant response rating (wheat; [3]): 90; Plant response rating, Corn (corn; Postemergence, 125 g ai/ha): 60; Corn plant response rating (corn; [1]): 70; Corn plant response rating (corn; [2]): 30; Corn plant response rating (corn; [3]): 80
CCCc1cc[n+]([O-])c(S(=O)(=O)Cc2c(C(F)(F)F)nn(C)c2OCC(F)(F)F)c1 [Compound 115] | 60 | 70 | 90 | 90 | 20 | 70 | 80 | 100 | 40 | 80 | 90 | 100 | 0 | 0 | 30 | 80 | 20 | 80 | 100 | 100 | Plant response rating, Velvetleaf (velvetleaf; Postemergence, 125 g ai/ha): 0; Velvetleaf plant response rating (velvetleaf; [1]): 20; Velvetleaf plant response rating (velvetleaf; [2]): 20; Velvetleaf plant response rating (velvetleaf; [3]): 60; Plant response rating, Wheat (wheat; Postemergence, 125 g ai/ha): 30; Wheat plant response rating (wheat; [1]): 50; Wheat plant response rating (wheat; [2]): 20; Wheat plant response rating (wheat; [3]): 50; Plant response rating, Corn (corn; Postemergence, 125 g ai/ha): 0; Corn plant response rating (corn; [1]): 20; Corn plant response rating (corn; [2]): 30; Corn plant response rating (corn; [3]): 50
CCCc1cc[n+]([O-])c([S+]([O-])Cc2c(C(F)(F)F)nn(C)c2OC(F)F)c1 (stereo not drawn) [Compound 116] | 70 | 80 | 70 | 100 | 70 | 80 | 90 | 100 | 80 | 90 | 100 | 100 | 60 | 90 | 100 | 100 | 70 | 90 | 100 | 100 | Plant response rating, Velvetleaf (velvetleaf; Postemergence, 125 g ai/ha): 50; Velvetleaf plant response rating (velvetleaf; [1]): 80; Velvetleaf plant response rating (velvetleaf; [2]): 0; Velvetleaf plant response rating (velvetleaf; [3]): 90; Plant response rating, Wheat (wheat; Postemergence, 125 g ai/ha): 50; Wheat plant response rating (wheat; [1]): 60; Wheat plant response rating (wheat; [2]): 50; Wheat plant response rating (wheat; [3]): 80; Plant response rating, Corn (corn; Postemergence, 125 g ai/ha): 60; Corn plant response rating (corn; [1]): 90; Corn plant response rating (corn; [2]): 60; Corn plant response rating (corn; [3]): 90
